The numbers were not newly measured in patent US11167013B2, “Sucrose acetate isobutyrate-based compositions, methods and uses thereof” (ASSOCIATION FOR THE ADVANCEMENT OF TISSUE ENGINEERING CELL …, priority 2017, dated 2021), which cites them from elsewhere.

The conditions of series [1]: neat SAIB.
For series [2] the following is noted: as food additive.

Regarding Sucrose acetate isobutyrate [SAIB], the viscosity result in series [1] is given as “over 100 Pa·s”. Besides, the allowable daily intake in series [2] was 20 mg·kg/day.
